Values of other authors as cited in patent US7186826B2, “Phosphorus-containing compounds and uses thereof” (ARIAD Gene Therapeutics, Inc., priority 2002, dated 2007).

Conditions: see WO 03/022807 and 99/15530

biological half-life: shortened
Compound: CO[C@H]1C[C@@H]2CC[C@@H](C)[C@@](O)(O2)C(=O)C(=O)N2CCCC[C@H]2C(=O)O[C@H]([C@H](C)C[C@@H]2CC[C@H](n3cnnn3)[C@H](OC)C2)CC(=O)[C@H](C)/C=C(\C)[C@@H](O)[C@@H](OC)C(=O)[C@H](C)C[C@H](C)/C=C/C=C/C=C/1C [ABT-578]
